# Results from ChEMBL document CHEMBL3045059, “Efficacy of ketoenols on insecticide resistant field populations of two-spotted spider mite Tetranychus urticae and sweet potato whitefly Bemisia tabaci from Greece” (2012).
# Experiments:
# Type in all cases: functional
# [1] = test system: Tetranychus urticae; experiment: Acaricidal activity against larvae of Tetranychus urticae (two-spotted spider mite) laboratory strain GSS in bean leaves assessed as mortality applied at 1 bar pressure measured after 6 days
# [2] = test system: Tetranychus urticae; experiment: Resistance ratio, ratio of LC50 for larvae of Tetranychus urticae (two-spotted spider mite) greenhouse population TU3 to LC50 for larvae of Tetranychus urticae laboratory strain SAMB measured after 6 days
# [3] = test system: Tetranychus urticae; experiment: Resistance ratio, ratio of LC50 for larvae of Tetranychus urticae (two-spotted spider mite) field population TU12 to LC50 for larvae of Tetranychus urticae laboratory strain SAMB measured after 6 days
# [4] = test system: Tetranychus urticae; experiment: Acaricidal activity against larvae of Tetranychus urticae (two-spotted spider mite) field population TU12 in bean leaves assessed as mortality applied at 1 bar pressure measured after 6 days
# [5] = test system: Tetranychus urticae; experiment: Resistance ratio, ratio of LC50 for larvae of Tetranychus urticae (two-spotted spider mite) field population TU4 to LC50 for larvae of Tetranychus urticae laboratory strain SAMB measured after 6 days
# [6] = test system: Tetranychus urticae; experiment: Resistance ratio, ratio of LC50 for larvae of Tetranychus urticae (two-spotted spider mite) field population TU6 to LC50 for larvae of Tetranychus urticae laboratory strain SAMB measured after 6 days
# [7] = test system: Tetranychus urticae; experiment: Acaricidal activity against larvae of Tetranychus urticae (two-spotted spider mite) field population TU4 in bean leaves assessed as mortality applied at 1 bar pressure measured after 6 days
# [8] = test system: Tetranychus urticae; experiment: Acaricidal activity against larvae of Tetranychus urticae (two-spotted spider mite) greenhouse population TU5 in bean leaves assessed as mortality applied at 1 bar pressure measured after 6 days
# [9] = test system: Tetranychus urticae; experiment: Acaricidal activity against larvae of Tetranychus urticae (two-spotted spider mite) field population TU6 in bean leaves assessed as mortality applied at 1 bar pressure measured after 6 days
# [10] = test system: Tetranychus urticae; experiment: Acaricidal activity against larvae of Tetranychus urticae (two-spotted spider mite) laboratory strain SAMB in bean leaves assessed as mortality applied at 1 bar pressure measured after 6 days
# [11] = test system: Tetranychus urticae; experiment: Resistance ratio, ratio of LC50 for larvae of Tetranychus urticae (two-spotted spider mite) mixed strain ALL-14 selected with spirodiclofen for 14 generations to LC50 for larvae of Tetranychus urticae (two-spotted spider mite) laboratory strain SAMB measured after 6 days
# [12] = test system: Tetranychus urticae; experiment: Acaricidal activity against larvae of Tetranychus urticae (two-spotted spider mite) field population TU2 in bean leaves assessed as mortality applied at 1 bar pressure measured after 6 days
# [13] = test system: Tetranychus urticae; experiment: Acaricidal activity against larvae of Tetranychus urticae (two-spotted spider mite) greenhouse population TU11 in bean leaves assessed as mortality applied at 1 bar pressure measured after 6 days
# [14] = test system: Tetranychus urticae; experiment: Resistance ratio, ratio of LC50 for larvae of Tetranychus urticae (two-spotted spider mite) greenhouse population TU5 to LC50 for larvae of Tetranychus urticae laboratory strain SAMB measured after 6 days
# [15] = test system: Tetranychus urticae; experiment: Resistance ratio, ratio of LC50 for larvae of Tetranychus urticae (two-spotted spider mite) greenhouse population TU1 to LC50 for larvae of Tetranychus urticae laboratory strain SAMB measured after 6 days
# [16] = test system: Tetranychus urticae; experiment: Acaricidal activity against larvae of Tetranychus urticae (two-spotted spider mite) greenhouse population TU9 in bean leaves assessed as mortality applied at 1 bar pressure measured after 6 days
# [17] = test system: Tetranychus urticae; experiment: Resistance ratio, ratio of LC50 for larvae of Tetranychus urticae (two-spotted spider mite) greenhouse population TU7 to LC50 for larvae of Tetranychus urticae laboratory strain SAMB measured after 6 days
# [18] = test system: Tetranychus urticae; experiment: Acaricidal activity against larvae of Tetranychus urticae (two-spotted spider mite) mixed strain ALL-14 selected with spirodiclofen for 14 generations in bean leaves assessed as mortality by applying constant selection pressure under laboratory conditions
# [19] = test system: Tetranychus urticae; experiment: Resistance ratio, ratio of LC50 for larvae of Tetranychus urticae (two-spotted spider mite) greenhouse population TU11 to LC50 for larvae of Tetranychus urticae laboratory strain SAMB measured after 6 days
# [20] = test system: Tetranychus urticae; experiment: Resistance ratio, ratio of LC50 for larvae of Tetranychus urticae (two-spotted spider mite) greenhouse population TU9 to LC50 for larvae of Tetranychus urticae laboratory strain SAMB measured after 6 days
# [21] = test system: Tetranychus urticae; experiment: Acaricidal activity against larvae of Tetranychus urticae (two-spotted spider mite) greenhouse population TU7 in bean leaves assessed as mortality applied at 1 bar pressure measured after 6 days
# [22] = test system: Tetranychus urticae; experiment: Resistance ratio, ratio of LC50 for larvae of Tetranychus urticae (two-spotted spider mite) laboratory strain GSS to LC50 for larvae of Tetranychus urticae laboratory strain SAMB measured after 6 days
# [23] = test system: Tetranychus urticae; experiment: Acaricidal activity against larvae of Tetranychus urticae (two-spotted spider mite) greenhouse population TU3 in bean leaves assessed as mortality applied at 1 bar pressure measured after 6 days
# [24] = test system: Tetranychus urticae; experiment: Acaricidal activity against larvae of Tetranychus urticae (two-spotted spider mite) greenhouse population TU1 in bean leaves assessed as mortality applied at 1 bar pressure measured after 6 days
# [25] = test system: Tetranychus urticae; experiment: Resistance ratio, ratio of LC50 for larvae of Tetranychus urticae (two-spotted spider mite) field population TU2 to LC50 for larvae of Tetranychus urticae laboratory strain SAMB measured after 6 days
compound,measurement,setting,value
CCC(C)(C)C(=O)OC1=C(c2ccc(Cl)cc2Cl)C(=O)OC12CCCCC2 [SPIRODICLOFEN],LC95,[1],4 µg/mL
same,LC50,"[1]; Tetranychus urticae, GSS, 144 h",1.4 µg/mL
same,RatioLC50,[2],0.7
same,RatioLC50,[3],2.5
same,LC95,[4],23.8 µg/mL
same,LC50,"[4]; Tetranychus urticae, TU12, 144 h",5.5 µg/mL
same,RatioLC50,[5],1.1
same,RatioLC50,[6],0.2
same,LC95,[7],8 µg/mL
same,LC50,"[7]; Tetranychus urticae, TU4, 144 h",2.5 µg/mL
same,LC95,[8],4.6 µg/mL
same,LC50,"[8]; Tetranychus urticae, TU5, 144 h",2.5 µg/mL
same,LC95,[9],2.3 µg/mL
same,LC50,"[9]; Tetranychus urticae, TU6, 144 h",0.5 µg/mL
same,LC95,[10],7.8 µg/mL
same,LC50,"[10]; Tetranychus urticae, SAMB, 144 h",2.2 µg/mL
same,RatioLC50,[11],4.3
same,LC95,[12],18.6 µg/mL
same,LC50,"[12]; Tetranychus urticae, TU2, 144 h",3.2 µg/mL
same,LC95,[13],46.1 µg/mL
same,LC50,"[13]; Tetranychus urticae, TU11, 144 h",8.7 µg/mL
same,RatioLC50,[14],1.1
same,RatioLC50,[15],1.2
same,LC95,[16],43.4 µg/mL
same,LC50,"[16]; Tetranychus urticae, TU9, 144 h",5 µg/mL
same,RatioLC50,[17],12
same,LC95,[18],32.1 µg/mL
same,LC50,"[18]; Tetranychus urticae, mixed strain ALL-14",9.5 µg/mL
same,RatioLC50,[19],3.9
same,RatioLC50,[20],2.2
same,LC95,[21],87.7 µg/mL
same,LC50,"[21]; Tetranychus urticae, TU7, 144 h",27 µg/mL
same,RatioLC50,[22],0.6
same,LC95,[23],5 µg/mL
same,LC50,"[23]; Tetranychus urticae, TU3, 144 h",1.6 µg/mL
same,LC95,[24],17.9 µg/mL
same,LC50,"[24]; Tetranychus urticae, TU1, 144 h",2.7 µg/mL
same,RatioLC50,[25],1.4
